For 23 compounds, T/C results are on record in PubChem BioAssay AID274 (DTP/NCI, 2004).

The structures appear in SMILES notation. Several values for one entry are separate records, joined by “and”; a condition that tells them apart may be missing. Equal values may be shown once. Inconclusive results and toxic doses are left out.

For this test, the system named is BDF1 mice, Lewis lung carcinoma iv, survival T/C. The experiment in a line: NCI In Vivo Anticancer Drug Screen. Data for tumor model Lewis Lung Carcinoma (intravenous) in B6D2F1 (BDF1) mice. The following applies: endpoint: median survival time, higher = longer survival. The procedure: The antitumor activity of compounds was measured in mice bearing transplantable tumors. Survival or tumor size were measured and the results are expressed as the measurement made in the treated group (T) divided by the measurement made in the vehicle treated control group (C). The tumor model used in this assay is Lewis Lung Carcinoma (intravenous) in B6D2F1 (BDF1) mice

The mark [1] stands for this setting: dose: 12.5 mg/kg/injection, schedule: Q01DX009 (ip), vehicle: saline with Tween-80.
[2] abbreviates: dose: 25.0 mg/kg/injection, schedule: Q01DX009 (ip), vehicle: saline with Tween-80.
Where [3] appears, read: dose: 50.0 mg/kg/injection, schedule: Q01DX009 (ip), vehicle: saline with Tween-80.
[4] abbreviates: dose: 100.0 mg/kg/injection, schedule: Q01DX009 (ip), vehicle: saline with Tween-80.
The mark [5] stands for this setting: dose: 12.5 mg/kg/injection, schedule: Q01DX009 (ip), vehicle: water.
Where [6] appears, read: dose: 25.0 mg/kg/injection, schedule: Q01DX009 (ip), vehicle: water.
[7] abbreviates: dose: 50.0 mg/kg/injection, schedule: Q01DX009 (ip), vehicle: water.
[8] abbreviates: dose: 100.0 mg/kg/injection, schedule: Q01DX009 (ip), vehicle: water.
The mark [9] stands for this setting: dose: 6.25 mg/kg/injection, schedule: Q01DX009 (ip), vehicle: saline.
The mark [10] stands for this setting: dose: 12.5 mg/kg/injection, schedule: Q01DX009 (ip), vehicle: saline.
Setting [11] is: dose: 25.0 mg/kg/injection, schedule: Q01DX009 (ip), vehicle: saline.
Setting [12] is: dose: 50.0 mg/kg/injection, schedule: Q01DX009 (ip), vehicle: saline.
Where [13] appears, read: dose: 100.0 mg/kg/injection, schedule: Q01DX009 (ip), vehicle: saline.
Where [14] appears, read: dose: 1.0 mg/kg/injection, schedule: Q01DX009 (ip), vehicle: saline.

For `COC(=O)C(F)C(Br)C(=O)OC` (stereo not drawn), the T/C is 95 % of control (dose: 3.13 mg/kg/injection, schedule: Q01DX009 (ip), vehicle: saline with Tween-80); 99 % of control (dose: 6.25 mg/kg/injection, schedule: Q01DX009 (ip), vehicle: saline with Tween-80); 95 % of control under setting [1]; 100 % of control under setting [2]; 104 % of control under setting [3].
Turning to `O=S(=O)(N=N/C=C1\C=CC=CN1O)c1cccs1`, the T/C under setting [1] is 105 % of control, the T/C under setting [2] was 115 % of control, the T/C under setting [3] is 100 % of control and the T/C under setting [4] was 92 % of control.
In the case of `Nc1nc2c(ncn2C2OC(CO)C(O)C2O)c(=O)[nH]1.Nc1nc2c(ncn2C2OC(CO)C(O)C2O)c(=O)[nH]1.[NH2-].[NH2-].[Pt+2]` (stereo not drawn), the T/C is 99 % of control under setting [5], 96 % of control under setting [6], 104 % of control under setting [7] and 113 % of control under setting [8].
With `CC1CCOS(=O)O1` (stereo not drawn), the T/C reads like this: (dose: 10.0 mg/kg/injection, schedule: Q01DX009 (ip), vehicle: saline) 100 % of control; (dose: 20.0 mg/kg/injection, schedule: Q01DX009 (ip), vehicle: saline) 94 % of control; (dose: 40.0 mg/kg/injection, schedule: Q01DX009 (ip), vehicle: saline) 95 % of control.
On to `CC1(C)COCN1COCCOCN1COCC1(C)C`, for which the T/C reads like this: under setting [9], 114 % of control; under setting [10], 97 % of control; under setting [11], 106 % of control; under setting [12], 122 % of control; under setting [13], 95 % of control.
`C=C1C(=O)OC2C3OC(C)(CCC(O)C3COC(C)=O)CC(OC(=O)/C(=C/C)COC(C)=O)C12` (stereo not drawn): the T/C by setting is: (dose: 0.75 mg/kg/injection, schedule: Q01DX009 (ip), vehicle: suspension in saline) 112 % of control; (dose: 1.5 mg/kg/injection, schedule: Q01DX009 (ip), vehicle: suspension in saline) 103 % of control; (dose: 3.0 mg/kg/injection, schedule: Q01DX009 (ip), vehicle: suspension in saline) 89 % of control.
Take `CO[C@@]12[C@H](COC(N)=O)C3=C(C(=O)C(C)=C(N)C3=O)N1C[C@@H]1N[C@@H]12`: the T/C reads like this: (dose: 0.12 mg/kg/injection, schedule: Q01DX009 (ip), vehicle: saline) 101 % of control; (dose: 0.25 mg/kg/injection, schedule: Q01DX009 (ip), vehicle: saline) 105 % of control; (dose: 0.5 mg/kg/injection, schedule: Q01DX009 (ip), vehicle: saline) 98 % of control; under setting [14], 101 % of control.
As for `CC(C)C1OC(=O)/C=C/C=C/C=C/C=C/C=C/CC(O)C(C)C(O)CC(O)CC(O)CC(O)CC(O)CC(O)CC(O)/C=C/C1C` (stereo not drawn), the T/C runs as follows: under setting [9], 111 % of control; under setting [10], 104 % of control; under setting [11], 111 % of control.
Turning to `O=C(O)C(CSC(c1ccccc1)(c1ccccc1)c1ccccc1)N=Cc1cccs1` (stereo not drawn), the T/C runs as follows: under setting [10], 107 % of control; under setting [11], 102 % of control; under setting [12], 101 % of control.
`CNc1nc(N(C)C)nc(N(C)C)n1`: the T/C is 96 % of control under setting [10] and 98 % of control under setting [11].
On to `NNC(=S)N/N=C/c1ccccn1`, for which the T/C is 98 % of control (dose: 1.56 mg/kg/injection, schedule: Q01DX009 (ip), vehicle: saline); 102 % of control (dose: 3.12 mg/kg/injection, schedule: Q01DX009 (ip), vehicle: saline); 107 % of control under setting [9]; 114 % of control under setting [10].
On to `c1cn[nH]c1`, for which the T/C was 121 % of control under setting [11] and 110 % of control under setting [12].
Regarding `CC(=O)OCC1OC(n2ccc(N)nc2=O)C(OC(C)=O)C1OC(C)=O` (stereo not drawn), the T/C is 122 % of control under setting [10], 98 % of control under setting [11] and 109 % of control under setting [12].
Take `O=C(O)CC[S-].[Ag+]`: the T/C runs as follows: under setting [3], 99 % of control; under setting [4], 102 % of control; (dose: 200.0 mg/kg/injection, schedule: Q01DX009 (ip), vehicle: saline with Tween-80) 91 % of control.
For `CC/C(=C(/CC)c1ccc(O)cc1)c1ccc(O)cc1`, the T/C under setting [5] was 123 % of control; the T/C under setting [6] was 102 % of control; the T/C under setting [7] is 102 % of control; the T/C under setting [8] was 106 % of control; the T/C (dose: 200.0 mg/kg/injection, schedule: Q01DX009 (ip), vehicle: water) was 120 % of control.
In the case of `N/C(=N\O)c1cn(C2OC(CO)C(O)C2O)c2ncnc(N)c12` (stereo not drawn), the T/C under setting [14] is 91 % of control; the T/C (dose: 2.0 mg/kg/injection, schedule: Q01DX009 (ip), vehicle: saline) is 88 % of control; the T/C (dose: 4.0 mg/kg/injection, schedule: Q01DX009 (ip), vehicle: saline) is 98 % of control.
In the case of `C[C@H](N)C(=O)N[C@@H]1[C@H]2C(=C(O)C[C@@H](O)[C@@H]2O)C(=O)O[C@]1(C)C(Cl)Cl`, the T/C is 101 % of control (dose: 0.38 mg/kg/injection, schedule: Q01DX009 (ip), vehicle: Klucel (hydroxypropylcellulose) (HPC)); 102 % of control (dose: 0.75 mg/kg/injection, schedule: Q01DX009 (ip), vehicle: Klucel (hydroxypropylcellulose) (HPC)); 108 % of control (dose: 1.5 mg/kg/injection, schedule: Q01DX009 (ip), vehicle: Klucel (hydroxypropylcellulose) (HPC)).
With `CC1CCC(NC(=O)N(CCCl)N=O)CC1` (stereo not drawn), the T/C runs as follows: (dose: 5.0 mg/kg/injection, schedule: Q01DX001 (ip), vehicle: saline) 100 % of control; (dose: 10.0 mg/kg/injection, schedule: Q01DX001 (ip), vehicle: saline) 100 % of control; (dose: 24.0 mg/kg/injection, schedule: Q01DX001 (ip), vehicle: saline with Tween-80) 156 % of control; (dose: 24.0 mg/kg/injection, schedule: Q06DX002 (ip), vehicle: saline with Tween-80) 176 % of control and 270 % of control; (dose: 30.0 mg/kg/injection, schedule: Q01DX001 (ip), vehicle: saline) 94 % of control and 103 % of control; (dose: 30.0 mg/kg/injection, schedule: Q06DX002 (ip), vehicle: saline with Tween-80) 220 % of control and 260 % of control. Moreover, the T/C runs as follows: (dose: 36.0 mg/kg/injection, schedule: Q01DX001 (ip), vehicle: saline with Tween-80) 162 % of control and 185 % of control and 205 % of control; (dose: 40.0 mg/kg/injection, schedule: Q01DX001 (ip), vehicle: saline) 103 % of control.
For `Nc1ncnc2nc[nH]c12`, the T/C by setting is: (dose: 32.0 mg/kg/injection, schedule: Q01DX009 (ip), vehicle: Klucel (hydroxypropylcellulose) (HPC)) 99 % of control; (dose: 64.0 mg/kg/injection, schedule: Q01DX009 (ip), vehicle: Klucel (hydroxypropylcellulose) (HPC)) 99 % of control; (dose: 128.0 mg/kg/injection, schedule: Q01DX009 (ip), vehicle: Klucel (hydroxypropylcellulose) (HPC)) 98 % of control.
With `O=C(NCCN1CC1)C(=O)NCCN1CC1`, the T/C was 108 % of control (dose: 0.38 mg/kg/injection, schedule: Q01DX009 (ip), vehicle: saline); 110 % of control (dose: 0.75 mg/kg/injection, schedule: Q01DX009 (ip), vehicle: saline); 120 % of control (dose: 1.5 mg/kg/injection, schedule: Q01DX009 (ip), vehicle: saline); 101 % of control (dose: 3.0 mg/kg/injection, schedule: Q01DX009 (ip), vehicle: saline).
On to `CCc1ncnc2cc(OCC3CO3)c(OC)cc12` (stereo not drawn), for which the T/C is 98 % of control (dose: 6.25 mg/kg/injection, schedule: Q01DX009 (ip), vehicle: suspension in saline); 104 % of control (dose: 12.5 mg/kg/injection, schedule: Q01DX009 (ip), vehicle: suspension in saline); 93 % of control (dose: 25.0 mg/kg/injection, schedule: Q01DX009 (ip), vehicle: suspension in saline).
As for `CCN(CC)CCOCCO`, the T/C runs as follows: under setting [11], 110 % of control; under setting [12], 99 % of control; under setting [13], 101 % of control; (dose: 200.0 mg/kg/injection, schedule: Q01DX009 (ip), vehicle: saline) 99 % of control.
Regarding `CC(C)[NH-].CC(C)[NH-].O.O.[Cl][Pt+2][Cl]`, the T/C (dose: 3.13 mg/kg/injection, schedule: Q01DX009 (ip), vehicle: dextrose) is 100 % of control and the T/C (dose: 6.25 mg/kg/injection, schedule: Q01DX009 (ip), vehicle: dextrose) was 102 % of control.
